Converted amounts (≈) assume the structure as drawn. Read-outs that look alike come from different tables or passages of the source.
Experiments:
[1] = test system: E. coli strain WEC and its Pine-Sol-selected mutant; experiment: Antibiotic susceptibility by discs (diameter of clearing); format: cell-based
Method: (§1) Mutants resistant to Pine-Sol/pine oil were obtained from stationary phase LB broth cultures of E. coli strain “WEC” (wild type strain 15-5068 from Carolina Biological Supply Co., Burlington, N.C.) and AG100 (George and Levy, J. Bacteriol. 155:531-540, 1983), at 30° C. on nutrient agar (NP 3.5GP) or LB agar with 2-3 days incubation in a variety of ways: using a 6 mm disc method; plating cells on plates or gradient plates (Curiale and Levy, J. Bacteriol. 151:209-215, 1982), containing PINE-SOL™ (product of Clorox Co., Oakland, Calif.) or pine oil itself.
(§2) Antibiotic susceptibility was measured at 30° C. using antibiotic susceptibility discs (Carolina Biological), gradient plates with the drug in the top agar (Curiale and Levy, 1982) or agar dilution plates (concentration steps of 1.5 fold; inocula of 10^5 cells/5 μl spot). While there was a variability of resistance phenotypes, all Pine-Sol/pine oil-selected mutants were also multidrug resistant (Table 1A, B).

[2] = test system: E. coli strains (AG100, Pine-Sol/pine oil mutants, Mar mutants); experiment: Susceptibility by gradient plates (MIC); format: cell-based; details: Escherichia coli
Method: as §1, §2

[3] = read-out: Susceptibility by gradient plates (MIC), strain AG102, Mar mutant of AG100, selected on Tc (2 steps)
[4] = read-out: Susceptibility by gradient plates (MIC), strain AP1, mutant of AG100 selected by pine oil on disc
[5] = read-out: Susceptibility by gradient plates (MIC), strain AP5, mutant of AG100 selected as for AP1
[6] = read-out: Susceptibility by gradient plates (MIC), strain APS3, mutant of AG100 selected on Pine-Sol gradient (0-1.5%)
[7] = strain AG100, wildtype, read-out: Susceptibility by gradient plates (MIC)
[8] = strain HH180, deletion of 39 kb including mar locus, host MM294, read-out: Susceptibility by gradient plates (MIC)
[9] = strain HH188, HH180 containing pHHM183 (mar+), read-out: Susceptibility by gradient plates (MIC)
[10] = strain HH191, HH180 containing pHHM191 (marR2), read-out: Susceptibility by gradient plates (MIC)
[11] = strain HH193, HH180 containing pHHM193 (marR5), read-out: Susceptibility by gradient plates (MIC)

| Structure (SMILES) | Susceptibility by discs; diameter of clearing ([1]; strain WEC, wild type, 30° C.) | Susceptibility by discs; diameter of clearing ([1]; {}) | MIC [2, 3] | MIC [2, 4] | MIC [2, 5] | MIC [2, 6] | MIC [2, 7] | MIC [2, 8] | MIC [2, 9] | MIC [2, 10] | MIC [2, 11] |
| --- | --- | --- | --- | --- | --- | --- | --- | --- | --- | --- | --- |
| CC1(C)S[C@@H]2[C@H](NC(=O)[C@H](N)c3ccccc3)C(=O)N2[C@H]1C(=O)O [Ap, ampicillin] | 22 mm | 12 mm | 85 µg/mL (≈ 243 µM) | 3 µg/mL (≈ 8.59 µM) | 7.2 µg/mL (≈ 20.6 µM) | 7.7 µg/mL (≈ 22 µM) | < 1.2 µg/mL | < 0.6 µg/mL | < 1 µg/mL | 5.4 µg/mL (≈ 15.5 µM) | 5.9 µg/mL (≈ 16.9 µM) |
| O=C(N[C@H](CO)[C@H](O)c1ccc([N+](=O)[O-])cc1)C(Cl)Cl [Cm, chloramphenicol] | 27 mm | 11 mm | > 35 µg/mL | 7.8 µg/mL (≈ 24.1 µM) | 21 µg/mL (≈ 65 µM) | > 35 µg/mL | 2.6 µg/mL (≈ 8.05 µM) |  |  |  |  |
| CCn1cc(C(=O)O)c(=O)c2ccc(C)nc21 [Nal, nalidixic acid] |  |  | 14 µg/mL (≈ 60.3 µM) | 9.7 µg/mL (≈ 41.8 µM) | 7.5 µg/mL (≈ 32.3 µM) | 8.6 µg/mL (≈ 37 µM) | 1.7 µg/mL (≈ 7.32 µM) | < 1.8 µg/mL | 3.7 µg/mL (≈ 15.9 µM) | 9.1 µg/mL (≈ 39.2 µM) | 10.9 µg/mL (≈ 46.9 µM) |
| CN(C)[C@@H]1C(O)=C(C(N)=O)C(=O)[C@@]2(O)C(O)=C3C(=O)c4c(O)cccc4[C@@](C)(O)[C@H]3C[C@@H]12 [Tc, tetracycline] | 21 mm | 14 mm | > 12.8 µg/mL | 2.4 µg/mL (≈ 5.4 µM) | 4.5 µg/mL (≈ 10.1 µM) | 5.3 µg/mL (≈ 11.9 µM) | 1.8 µg/mL (≈ 4.05 µM) | < 0.6 µg/mL | 1.2 µg/mL (≈ 2.7 µM) | 8.2 µg/mL (≈ 18.5 µM) | > 11.4 µg/mL |
